# Results as given in patent publication US4436918A, “Method for production of peptide, and its intermediate” (Takeda Chemical Industries, Ltd., priority 1981, dated 1984).
# Key:
# Assay in all cases: Antibacterial activity, agar dilution method (MIC)
# Assay type in all cases: cell-based
# [1] = system: Bacillus subtilis PCI 219; conditions: PCI219, 10^6 CFU/ml, 37° C., 18-20 hours, pH 7.0
# Procedure: (§1) The above-mentioned minimum inhibitory concentration (MIC; μg/ml) values were determined by the agar dilution method using the medium mentioned below. The inoculum size was one loopful with a viable count of 10^6 CFU/ml. Incubation was performed at 37° C. for 18-20 hours. Medium: glucose 3%, sodium glutamate 0.5%, K2 HPO4 0.05%, MgSO4.7H2 O 0.05%, KCl 0.05%, yeast extract (Difco) 0.05%, Casamino acid 0.02%, agar 1.5% (pH 7.0).
# [2] = system: Escherichia coli NIHJ JC-2; conditions: NIHJJC2, 10^6 CFU/ml, 37° C., 18-20 hours, pH 7.0
# Procedure: as §1
# [3] = system: Proteus morganii IFO 3168; conditions: Morganella morganii, IFO3168, 10^6 CFU/ml, 37° C., 18-20 hours, pH 7.0
# Procedure: as §1
# [4] = system: Proteus vulgaris IFO 3045; conditions: IFO3045, 10^6 CFU/ml, 37° C., 18-20 hours, pH 7.0
# Procedure: as §1
# [5] = system: Proteus vulgaris IFO 3988; conditions: IFO3988, 10^6 CFU/ml, 37° C., 18-20 hours, pH 7.0
# Procedure: as §1
structure (smiles),measurement,setting,value
C[C@@H](N)C(=O)NC(C(=O)O)C1CC(O)NC1=O (stereo partly drawn) [D-Alanyl-2-(5-hydroxy-2-oxopyrrolidin-3-yl)glycine],MIC,[1],6 to 24 mg/L
same,MIC,[2],3 to 12 mg/L
same,MIC,[3],3 to 12 mg/L
same,MIC,[4],0.6 to 2.4 mg/L
same,MIC,[5],1.6 to 4.8 mg/L
